Entries after “also recorded” stand apart in the source; their conditions may differ.
Key:
[1] = Crystal form stability after grinding, heating and pressing, evaluated by X-ray diffraction and DSC; type: physicochemical; conditions: for Stability under grinding, pressure and heating: grinded, heated and pressed, X-ray diffraction and DSC
Description: The form I crystal of SHR1258 dimaleate prepared in Example 1 was grinded, heated and pressed, then evaluated by X-ray diffraction and DSC patterns.

[2] = Stability of the solid placed open in the air under illumination, heating and humidity, HPLC analysis; type: physicochemical; conditions: for HPLC analysis result, 60° C.: heating 60° C.; for HPLC analysis result, RH 90%: humidity RH 90%; for HPLC analysis result, Light: illumination 4500 Lux
Procedure: The form I crystal of SHR1258 dimaleate prepared in Example 1 and the amorphous form of SHR1258 dimaleate prepared in Example 2 were placed open in the air to test the stability in various conditions including illumination (4500 Lux), heating (60° C.), and humidity (RH 90%).

Row | Stability under grinding, pressure and heating [1] | Stability under grinding, pressure and heating ([1]; listed as form I crystal of SHR1258 dimaleate) | Crystal (form after process) ([1]; grinding for 10 min under nitrogen atmosphere) | Crystal (form after process) ([1]; heating at 80° C. for 3 hours) | Crystal (form after process) ([1]; pressing into pieces) | HPLC analysis result, 60° C. ([2]; day 0) [%] | HPLC analysis result, 60° C. ([2]; day 5) [%] | HPLC analysis result, 60° C. ([2]; day 10) [%] | HPLC analysis result, RH 90% ([2]; day 0) [%] | HPLC analysis result, RH 90% ([2]; day 5) [%] | HPLC analysis result, RH 90% ([2]; day 10) [%] | Stability under illumination, form I crystal compared with amorphous form [2] | HPLC analysis result, Light ([2]; day 0) [%] | HPLC analysis result, Light ([2]; day 5) [%] | HPLC analysis result, Light ([2]; day 10) [%] | Structure (SMILES) | Stability under high temperature and high moisture, compared with amorphous form ([2]; high temperature and high humidity, listed as form I crystal of SHR1258 dimaleate)
1 | good stability | stable | Form I | Form I | Form I | 99.65 | 98.13 | 96.86 | 99.65 | 98.35 | 98.35 | similar | 99.65 | 98.20 | 97.91 | CCOc1cc2ncc(C#N)c(Nc3ccc(OCc4ccccn4)c(Cl)c3)c2cc1NC(=O)/C=C/[C@H]1CCCN1C [Form I Crystal, (R, E)-N-(4-(3-chloro-4-(pyridin-2-yl-methoxy)phenylamino)-3-cyano-7-ethoxyquinolin-6-yl)-3-(1-methylpyrrolidino-2-yl)acrylamide dimaleate] | significantly better than the amorphous form; also recorded: more stable
2 | – | – | – | – | – | 98.41 | 95.24 | 93.71 | 98.41 | 96.95 | 96.31 | similar | 98.41 | 96.96 | 96.91 | CCOc1cc2ncc(C#N)c(Nc3ccc(OCc4ccccn4)c(Cl)c3)c2cc1NC(=O)/C=C/[C@H]1CCCN1C [Amorphous Form] | –
